Data taken from paper PMC8617627, “Novel DYRK1A Inhibitor Rescues Learning and Memory Deficits in a Mouse Model of Down Syndrome” (Pharmaceuticals, 2021).

Assays:
Experiment in all cases: Kinase profile (33P ATP filter binding)
Format in all cases: biochemical
Conditions in all cases: read-out: Remaining protein kinase activity
[1] = target: CLK2 (Homo sapiens, UniProt P49760)
[2] = target: DYRK1A (Homo sapiens, UniProt Q13627)
[3] = target: GSK3b (Homo sapiens, UniProt P49841)
[4] = target: DYRK3 (Homo sapiens, UniProt O43781)
Sequence of DYRK3 (O43781 whole entry): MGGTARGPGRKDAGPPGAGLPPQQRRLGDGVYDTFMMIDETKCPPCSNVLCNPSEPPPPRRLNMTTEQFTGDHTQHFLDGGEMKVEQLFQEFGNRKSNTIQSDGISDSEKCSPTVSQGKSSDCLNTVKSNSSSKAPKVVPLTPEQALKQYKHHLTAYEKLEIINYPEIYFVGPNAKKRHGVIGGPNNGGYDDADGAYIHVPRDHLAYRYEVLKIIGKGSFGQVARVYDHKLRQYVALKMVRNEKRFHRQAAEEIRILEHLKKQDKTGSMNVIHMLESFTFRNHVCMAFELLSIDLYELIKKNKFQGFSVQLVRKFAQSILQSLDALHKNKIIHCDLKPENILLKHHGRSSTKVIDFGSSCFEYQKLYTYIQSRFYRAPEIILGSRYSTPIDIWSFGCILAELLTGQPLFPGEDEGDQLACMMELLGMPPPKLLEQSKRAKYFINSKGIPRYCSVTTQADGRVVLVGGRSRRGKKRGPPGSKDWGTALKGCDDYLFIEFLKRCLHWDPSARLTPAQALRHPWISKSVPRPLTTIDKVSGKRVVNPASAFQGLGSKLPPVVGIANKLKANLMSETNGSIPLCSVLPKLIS

[5] = target: DYRK2 (Homo sapiens, UniProt Q92630)
Sequence of DYRK2 (Q92630 whole entry): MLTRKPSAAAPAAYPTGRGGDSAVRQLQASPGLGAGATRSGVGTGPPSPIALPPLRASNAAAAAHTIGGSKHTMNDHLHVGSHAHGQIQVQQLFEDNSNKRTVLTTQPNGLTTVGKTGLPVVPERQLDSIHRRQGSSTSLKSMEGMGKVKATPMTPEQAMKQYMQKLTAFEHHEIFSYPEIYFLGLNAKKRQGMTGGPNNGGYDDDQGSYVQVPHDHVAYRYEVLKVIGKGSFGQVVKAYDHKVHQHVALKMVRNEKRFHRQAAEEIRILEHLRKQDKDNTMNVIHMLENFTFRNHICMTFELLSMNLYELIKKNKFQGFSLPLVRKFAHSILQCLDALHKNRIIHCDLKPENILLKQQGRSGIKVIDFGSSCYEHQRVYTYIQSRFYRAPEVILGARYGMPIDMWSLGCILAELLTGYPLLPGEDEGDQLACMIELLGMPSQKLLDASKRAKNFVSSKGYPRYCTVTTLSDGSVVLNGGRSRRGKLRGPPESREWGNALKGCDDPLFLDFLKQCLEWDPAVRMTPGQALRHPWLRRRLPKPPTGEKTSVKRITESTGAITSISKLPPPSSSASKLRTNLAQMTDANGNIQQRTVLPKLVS

[6] = target: FGF-R1 (Homo sapiens, UniProt P11362)
Sequence of FGF-R1 (P11362 22-822): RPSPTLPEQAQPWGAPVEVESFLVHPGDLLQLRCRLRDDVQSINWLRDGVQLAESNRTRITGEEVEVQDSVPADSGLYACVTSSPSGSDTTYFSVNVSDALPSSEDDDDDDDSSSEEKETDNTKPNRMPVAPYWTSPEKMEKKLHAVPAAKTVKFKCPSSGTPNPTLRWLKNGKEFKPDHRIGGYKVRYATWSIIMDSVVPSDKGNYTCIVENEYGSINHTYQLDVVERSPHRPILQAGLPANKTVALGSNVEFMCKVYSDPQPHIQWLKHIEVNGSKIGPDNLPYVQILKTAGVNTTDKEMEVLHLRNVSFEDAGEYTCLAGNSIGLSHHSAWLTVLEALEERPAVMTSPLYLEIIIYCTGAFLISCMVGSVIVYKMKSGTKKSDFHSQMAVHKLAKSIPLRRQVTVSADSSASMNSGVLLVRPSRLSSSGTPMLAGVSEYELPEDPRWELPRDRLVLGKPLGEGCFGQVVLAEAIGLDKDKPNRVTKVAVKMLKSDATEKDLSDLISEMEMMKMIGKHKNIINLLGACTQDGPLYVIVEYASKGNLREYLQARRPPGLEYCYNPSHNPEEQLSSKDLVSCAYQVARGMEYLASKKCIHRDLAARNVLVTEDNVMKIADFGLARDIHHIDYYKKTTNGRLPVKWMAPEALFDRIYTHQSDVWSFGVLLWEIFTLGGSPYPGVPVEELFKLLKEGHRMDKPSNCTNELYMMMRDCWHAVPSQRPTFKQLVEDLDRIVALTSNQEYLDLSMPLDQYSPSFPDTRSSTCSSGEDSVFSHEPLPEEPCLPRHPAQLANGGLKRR

Sequence of CLK2 (P49760 whole entry): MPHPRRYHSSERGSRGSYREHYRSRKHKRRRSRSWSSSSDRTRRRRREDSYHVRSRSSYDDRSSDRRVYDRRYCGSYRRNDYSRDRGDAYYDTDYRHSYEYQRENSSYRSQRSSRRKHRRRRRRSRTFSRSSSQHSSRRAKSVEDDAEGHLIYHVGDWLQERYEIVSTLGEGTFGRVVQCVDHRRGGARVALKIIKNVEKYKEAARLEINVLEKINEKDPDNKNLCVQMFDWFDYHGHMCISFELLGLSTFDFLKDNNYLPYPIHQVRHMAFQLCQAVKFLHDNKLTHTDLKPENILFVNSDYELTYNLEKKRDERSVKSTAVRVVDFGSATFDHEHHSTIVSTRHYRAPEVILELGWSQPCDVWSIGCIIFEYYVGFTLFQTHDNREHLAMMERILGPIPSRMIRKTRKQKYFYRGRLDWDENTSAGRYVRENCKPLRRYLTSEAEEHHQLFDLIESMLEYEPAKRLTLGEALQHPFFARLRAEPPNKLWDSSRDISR
Sequence of GSK3b (P49841 whole entry): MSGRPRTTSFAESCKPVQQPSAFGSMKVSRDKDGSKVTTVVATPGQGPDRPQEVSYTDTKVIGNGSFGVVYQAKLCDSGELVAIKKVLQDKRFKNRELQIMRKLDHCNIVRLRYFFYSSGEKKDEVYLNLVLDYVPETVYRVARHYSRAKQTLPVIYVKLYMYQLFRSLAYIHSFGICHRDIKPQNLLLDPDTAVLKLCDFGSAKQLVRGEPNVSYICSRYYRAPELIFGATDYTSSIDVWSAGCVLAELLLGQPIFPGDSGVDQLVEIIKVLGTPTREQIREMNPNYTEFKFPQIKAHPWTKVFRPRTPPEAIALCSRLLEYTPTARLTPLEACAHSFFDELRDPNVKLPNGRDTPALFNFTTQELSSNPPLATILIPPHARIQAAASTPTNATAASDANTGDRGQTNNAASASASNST

COc1ccc2sc(-c3cncc(N)c3)nc2c1 [compound 1, 5-(5-Methoxybenzo[d]thiazol-2-yl)pyridin-3-amine]
remaining activity at 1 µM ([1]; 1 μM): 23% | remaining activity at 100 µM ([1]; 100 μM): 1% | remaining activity at 1 µM ([2]; 1 μM): 7% | remaining activity at 100 µM ([2]; 100 μM): 0% | remaining activity at 1 µM ([3]; 1 μM): 107% | remaining activity at 100 µM ([3]; 100 μM): 25% | remaining activity at 1 µM ([4]; 1 μM): 14% | remaining activity at 100 µM ([4]; 100 μM): 2% | remaining activity at 1 µM ([5]; 1 μM): 11% | remaining activity at 100 µM ([5]; 100 μM): 1% | remaining activity at 1 µM ([6]; 1 μM): 110% | remaining activity at 100 µM ([6]; 100 μM): 91%
